# In US20160052936A1, “SPIROINDOLINE DERIVATIVES FOR USE AS GONADOTROPIN-RELEASING HORMONE RECEPTOR ANTAGONISTS” (BAYER PHARMA AKTIENGESELLSCHAFT, priority 2013, published 2016):
# Target: T1, human GnRH receptor (Homo sapiens, UniProt P30968)
# T1 construct: host or cells: CHO cells stably expressing human GnRH receptor (line established by Prof. Thomas Gudermann)
# T1 sequence (P30968 1-328): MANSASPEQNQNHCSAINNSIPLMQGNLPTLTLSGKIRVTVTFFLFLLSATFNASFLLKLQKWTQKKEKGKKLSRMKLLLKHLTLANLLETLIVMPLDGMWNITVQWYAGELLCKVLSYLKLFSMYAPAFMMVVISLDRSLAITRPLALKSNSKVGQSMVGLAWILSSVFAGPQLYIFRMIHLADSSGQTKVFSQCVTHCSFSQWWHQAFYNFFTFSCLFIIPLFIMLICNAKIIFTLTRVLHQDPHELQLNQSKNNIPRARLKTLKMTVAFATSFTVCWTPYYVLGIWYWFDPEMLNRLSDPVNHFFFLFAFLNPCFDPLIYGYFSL
# Test: IP-One HTRF assay with buserelin stimulation
# Type: cell-based
# Details: CHO cells stably expressing human GnRH receptor; buserelin at EC80; read-out: Potency in IP-One HTRF assay with buserelin (at EC80) stimulation, given as IC50
# Excerpt: By using homogenous time-resolved fluorescence resonance energy transfer (HTRF), the generation of one component of the GnRH-R signalling cascade can be measured. After stimulation of CHO cells stably expressing human GnRH receptor (established by Prof. Thomas Gudermann, currently University of Marburg, Germany; supplied as frozen cell aliquots by Cell Culture Services, Hamburg, Germany) with the EC80 of the GnRH agonist buserelin, Gq protein-coupled receptor signalling cascade is activated resulting in PLC-dependent cleavage of PIP2 to Inositol-1,4,5-triphosphate (IP3) and Diacylglycerol. The second messenger IP3 is degraded intracellularly to myo-inositol. Inhibition of the final degradation step from Inositol-1-phosphate (IP1) to myo-inositol by addition of lithium chloride leads to accumulation of IP1 in the cells. In cell lysates, IP1 can be detected via an antibody-based HTRF detection technology, where IP1 can displace the FRET acceptor IP1-d2 from binding by Terbium-labelled anti-IP1 antibody as donor resulting in a signal decrease. Compounds were tested for their capability of inhibiting GnRH-R activation by buserelin. For all IP-One HTRF® assays reagents of Cisbio Bioassays (IP-One Tb Jumbo kit, #62IPAPEJ; Cisbio Bioassays, Bagnols sur Cèze Cedex, France) were used.
# For the assay, frozen cell aliquots were thawed and a cell suspension (3.33×10^6 cells/mL) containing IP1-d2 (dilution 1:40) was prepared and incubated at 37° C. After 1 h 3 μl of the cell suspension were added to 50 nl of a 100-fold concentrated solution of the test compound in DMSO pre-dispensed in a well of a white low-volume 384-well microtiter plate (Greiner Bio-One, Frickenhausen, Germany). […] Plates were incubated for 1 h at 37° C. and 5% carbon dioxide before the cells were lysed by adding 3 μl Terbium-labelled anti-IP1 antibody (1:40) diluted in Conjugate & Lysis buffer as supplied with the kit. After an incubation for 1 h at 22° C. to enable complete cell lysis and antibody binding to free IP1 or IP1-d2, plates were measured in an HTRF reader, e.g. a RUBYstar, PHERAstar (both BMG Labtechnologies, Offenburg, Germany) or a Viewlux (PerkinElmer LAS, Rodgau-Jügesheim, Germany).
# From the fluorescence emissions at 665 nm (FRET) and at 620 nm (background signal of Terbium-antibody), the ratio (emission at 665 nm divided by emission at 620 nm) was calculated and the data were normalized (reaction without test compound=0% inhibition; all other assay components except agonist=100% inhibition). On the same microtiter plate, compounds were tested at 10 different concentrations in the range of 20 μM to 1 nM (20 μM, 6.7 μM, 2.2 μM, 0.74 μM, 0.25 μM, 82 nM, 27 nM, 9.2 nM, 3.1 nM and 1 nM; dilution series prepared before the assay at the level of the 100-fold conc. stock solutions by serial 1:3 dilutions in 100% DMSO) in duplicate values for each concentration. By using an in-house software, the IC50 values were calculated by a 4 parameter fit.
# Within the meaning of the present invention the antagonist activity is reflected by the ability of a compound of the invention to antagonize human GnRH receptor stimulation in IP-One HTRF® assay at least three times the standard deviation over the background level.
row,Compound,IC50
1,"N#Cc1ccc(S(=O)(=O)N2c3ccc(C(=O)NCc4ncc(C(F)(F)F)cc4Cl)cc3C3(CCS(=O)(=O)CC3)[C@H]2C2CC2)cc1 (single isomer, unassigned) [Example 8.2]",3560 nM
2,"O=C(NCc1ncc(C(F)(F)F)cc1F)c1ccc2c(c1)C1(CCS(=O)(=O)CC1)C(C1CC1)N2S(=O)(=O)c1cccc(OC(F)F)c1 (racemic) [Example 13, 2-cyclopropyl-1-{[3-(difluoromethoxy)phenyl]sulfonyl}-N-{[3-fluoro-5-(trifluoromethyl)pyridin-2-yl]methyl}-1,2,2′,3′,5′,6′-hexahydrospiro[indole-3,4′-thiopyran]-5-carboxamide 1′,1′-dioxide]",423 nM
3,"N#Cc1ccc(S(=O)(=O)N2c3ccc(C(=O)NCc4ncc(C(F)(F)F)cc4F)cc3C3(CCS(=O)(=O)CC3)C2C2CC2)cc1 (single isomer, unassigned) [Example 7.2]",57 nM
4,"O=C(NCc1ncc(Cl)cc1C(F)(F)F)c1ccc2c(c1)C1(CCS(=O)(=O)CC1)C(C1CC1)N2S(=O)(=O)c1ccc(F)cc1 (racemic) [Example 4, N-{[5-chloro-3-(trifluoromethyl)pyridin-2-yl]methyl}-2-cyclopropyl-1-[(4-fluorophenyl)sulfonyl]-1,2,2′,3′,5′,6′-hexahydrospiro[indole-3,4′-thiopyran]-5-carboxamide 1′,1′-dioxide]",69 nM
5,"O=C(NCc1ncc(C(F)(F)F)cc1F)c1ccc2c(c1)C1(CCS(=O)(=O)CC1)C(C1CC1)N2S(=O)(=O)c1ccc(OC(F)F)cc1 (racemic) [Example 15, 2-cyclopropyl-1-{[4-(difluoromethoxy)phenyl]sulfonyl}-N-{[3-fluoro-5-(trifluoromethyl)pyridin-2-yl]methyl}-1,2,2′,3′,5′,6′-hexahydrospiro[indole-3,4′-thiopyran]-5-carboxamide 1′,1′-dioxide]",112 nM
6,"O=C(NCc1ncc(C(F)(F)F)cc1F)c1ccc2c(c1)C1(CCS(=O)(=O)CC1)[C@@H](C1CC1)N2S(=O)(=O)c1ccc(F)cc1 (single isomer, unassigned) [Example 1.2]",6990 nM
7,"O=C(NCc1ncc(C(F)(F)F)cc1Cl)c1ccc2c(c1)C1(CC[S+]([O-])CC1)C(C1CC1)N2S(=O)(=O)c1ccc(F)cc1 (mixture of isomers) [Example 2, N-{[3-chloro-5-(trifluoromethyl)pyridin-2-yl]methyl}-2-cyclopropyl-1-[(4-fluorophenyl)sulfonyl]-1,2,2′,3′,5′,6′-hexahydrospiro[indole-3,4′-thiopyran]-5-carboxamide 1′-oxide]",27 nM
8,"O=C(NCc1ncc(C(F)(F)F)cc1Cl)c1ccc2c(c1)C1(CCS(=O)(=O)CC1)C(C1CC1)N2S(=O)(=O)c1ccc(Cl)cc1 (racemic) [Example 19, 1-[(4-chlorophenyl)sulfonyl]-N-{[3-chloro-5-(trifluoromethyl)pyridin-2-yl]methyl}-2-cyclopropyl-1,2,2′,3′,5′,6′-hexahydrospiro[indole-3,4′-thiopyran]-5-carboxamide 1′,1′-dioxide]",31 nM
9,"COc1cccc(S(=O)(=O)N2c3ccc(C(=O)NCc4ncc(C(F)(F)F)cc4F)cc3C3(CCS(=O)(=O)CC3)C2C2CC2)c1 (racemic) [Example 6, 2-cyclopropyl-N-{[3-fluoro-5-(trifluoromethyl)pyridin-2-yl]methyl}-1-[(3-methoxyphenyl)sulfonyl]-1,2,2′,3′,5′,6′-hexahydrospiro[indole-3,4′-thiopyran]-5-carboxamide 1′,1′-dioxide]",231 nM
10,"O=C(NCc1ncc(C(F)(F)F)cc1F)c1ccc2c(c1)C1(CCS(=O)(=O)CC1)C(C1CC1)N2S(=O)(=O)c1ccc(Cl)cc1 (racemic) [Example 18, 1-[(4-chlorophenyl)sulfonyl]-2-cyclopropyl-N-{[3-fluoro-5-(trifluoromethyl)pyridin-2-yl]methyl}-1,2,2′,3′,5′,6′-hexahydrospiro[indole-3,4′-thiopyran]-5-carboxamide 1′,1′-dioxide]",65 nM
11,"NC(=O)c1ccc(S(=O)(=O)N2c3ccc(C(=O)NCc4ncc(C(F)(F)F)cc4Cl)cc3C3(CCS(=O)(=O)CC3)C2C2CC2)cc1 (racemic) [Example 17, 1-[(4-carbamoylphenyl)sulfonyl]-N-{[3-chloro-5-(trifluoromethyl)pyridin-2-yl]methyl}-2-cyclopropyl-1,2,2′,3′,5′,6′-hexahydrospiro[indole-3,4′-thiopyran]-5-carboxamide 1′,1′-dioxide]",260 nM
12,"O=C(NCc1ncc(C(F)(F)F)cc1Cl)c1ccc2c(c1)C1(CCS(=O)(=O)CC1)C(C1CC1)N2S(=O)(=O)c1cccc(OC(F)(F)F)c1 (racemic) [Example 12, N-{[3-chloro-5-(trifluoromethyl)pyridin-2-yl]methyl}-2-cyclopropyl-1-{[3-(trifluoromethoxy)phenyl]sulfonyl}-1,2,2′,3′,5′,6′-hexahydrospiro[indole-3,4′-thiopyran]-5-carboxamide 1′,1′-dioxide]",219 nM
13,"O=C(NCc1ncc(C(F)(F)F)cc1F)c1ccc2c(c1)C1(CCS(=O)(=O)CC1)C(C1CC1)N2S(=O)(=O)c1ccc(Cl)cc1 (single isomer, unassigned) [Example 18.1]",31 nM
14,"O=C(NCc1ncc(C(F)(F)F)cc1F)c1ccc2c(c1)C1(CCS(=O)(=O)CC1)C(C1CC1)N2S(=O)(=O)c1cccc(OC(F)(F)F)c1 (racemic) [Example 11, 2-cyclopropyl-N-{[3-fluoro-5-(trifluoromethyl)pyridin-2-yl]methyl}-1-{[3-(trifluoromethoxy)phenyl]sulfonyl}-1,2,2′,3′,5′,6′-hexahydrospiro[indole-3,4′-thiopyran]-5-carboxamide 1′,1′-dioxide]",760 nM
15,"O=C(NCc1ncc(C(F)(F)F)cc1Cl)c1ccc2c(c1)C1(CCS(=O)(=O)CC1)C(C1CC1)N2S(=O)(=O)c1ccc(OC(F)F)cc1 (racemic) [Example 16, N-{[3-chloro-5-(trifluoromethyl)pyridin-2-yl]methyl}-2-cyclopropyl-1-{[4-(difluoromethoxy)phenyl]sulfonyl}-1,2,2′,3′,5′,6′-hexahydrospiro[indole-3,4′-thiopyran]-5-carboxamide 1′,1′-dioxide]",37 nM
16,"N#Cc1ccc(S(=O)(=O)N2c3ccc(C(=O)NCc4ncc(C(F)(F)F)cc4F)cc3C3(CCS(=O)(=O)CC3)C2C2CC2)cc1 (racemic) [Example 7, 1-[(4-cyanophenyl)sulfonyl]-2-cyclopropyl-N-{[3-fluoro-5-(trifluoromethyl)pyridin-2-yl]methyl}-1,2,2′,3′,5′,6′-hexahydrospiro[indole-3,4′-thiopyran]-5-carboxamide 1′,1′-dioxide]",69 nM
17,"Cc1cnc(CNC(=O)c2ccc3c(c2)C2(CCS(=O)(=O)CC2)C(C2CC2)N3S(=O)(=O)c2ccc(F)cc2)c(C(F)(F)F)c1 (racemic) [Example 5, 2-cyclopropyl-1-[(4-fluorophenyl)sulfonyl]-N-{[5-methyl-3-(trifluoromethyl)pyridin-2-yl]methyl}-1,2,2′,3′,5′,6′-hexahydrospiro[indole-3,4′-thiopyran]-5-carboxamide 1′,1′-dioxide]",864 nM
18,"N#Cc1cccc(S(=O)(=O)N2c3ccc(C(=O)NCc4ncc(C(F)(F)F)cc4F)cc3C3(CCS(=O)(=O)CC3)C2C2CC2)c1 (racemic) [Example 9, 1-[(3-cyanophenyl)sulfonyl]-2-cyclopropyl-N-{[3-fluoro-5-(trifluoromethyl)pyridin-2-yl]methyl}-1,2,2′,3′,5′,6′-hexahydrospiro[indole-3,4′-thiopyran]-5-carboxamide 1′,1′-dioxide]",311 nM
